What was measured:
Conditions in all cases: 48 h
[1] = system: SEM cells; experiment: cell viability relative to DMSO control; higher = less cytotoxic
In short: (§1)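 Before seeding, each leukemia line was adapted for at least four passages in each medium. NOMO1 or SEM cells (500 cells/well) and P12-Ichikawa cells (1000 cells/well) went into 1536-well plates at 5 μl, then received library compounds in DMSO by pin dosing across 11 threefold concentrations, 47 μM to 0.79 nM. Readout was CellTiter-Glo One luminescence after 48 h at 37°C, and viability is given as a per-plate percentage of DMSO wells, with cell-free wells as background.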

[2] = system: NOMO1; experiment: as above
In short: as §1

[3] = system: P12-Ichikawa; experiment: as above
In short: as §1

[4] = system: SEM cells; experiment: AUC of viability dose-response curve (% viability x log10 dose units); higher = less sensitive
In short: (§2)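 Leukemia cells adapted to each medium were seeded in 1536-well plates (500 or 1000 cells/well) and given library compounds in DMSO for 48 h at 37°C. The 11 threefold doses spanned 47 μM to 0.79 nM, and CellTiter-Glo One luminescence was normalised per plate to DMSO and cell-free wells before four-parameter log-logistic fitting on log10 dose. Area under the curve was integrated with the trapezoidal rule, scaling curves above full viability and removing curves that failed quality control.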

[5] = system: NOMO1; experiment: as above
In short: as §2

[6] = system: P12-Ichikawa; experiment: as above
In short: as §2

COc1ccccc1OCC(O)CN1CCN(CC(=O)Nc2c(C)cccc2C)CC1 (stereo unspecified)
cell viability [%]
Conditions	[1]	[2]	[3]
HPLM + 10% dialyzed FBS, 0.000781 µM	81.9	109	122
HPLM + 10% dialyzed FBS, 0.00234 µM	101	117	119
HPLM + 10% dialyzed FBS, 0.00702 µM	98	142	127
HPLM + 10% dialyzed FBS, 0.0211 µM	121	142	127
HPLM + 10% dialyzed FBS, 0.0632 µM	126	129	130
HPLM + 10% dialyzed FBS, 0.19 µM	123	157	132
HPLM + 10% dialyzed FBS, 0.569 µM	111	168	135
HPLM + 10% dialyzed FBS, 1.71 µM	118	154	132
HPLM + 10% dialyzed FBS, 5.12 µM	136	138	140
HPLM + 10% dialyzed FBS, 15.4 µM	130	138	112
HPLM + 10% dialyzed FBS, 46.1 µM	136	137	110
RPMI 5 mM glucose + 10% FBS, 0.000781 µM	104	115	–
RPMI 5 mM glucose + 10% FBS, 0.00234 µM	135	131	–
RPMI 5 mM glucose + 10% FBS, 0.00702 µM	122	125	–
RPMI 5 mM glucose + 10% FBS, 0.0211 µM	128	167	–
RPMI 5 mM glucose + 10% FBS, 0.0632 µM	134	139	–
RPMI 5 mM glucose + 10% FBS, 0.19 µM	148	155	–
RPMI 5 mM glucose + 10% FBS, 0.569 µM	123	141	–
RPMI 5 mM glucose + 10% FBS, 1.71 µM	142	136	–
RPMI 5 mM glucose + 10% FBS, 5.12 µM	134	144	–
RPMI 5 mM glucose + 10% FBS, 15.4 µM	129	139	–
RPMI 5 mM glucose + 10% FBS, 46.1 µM	131	141	–
RPMI 5 mM glucose + 10% dialyzed FBS, 0.000781 µM	115	–	–
RPMI 5 mM glucose + 10% dialyzed FBS, 0.00234 µM	128	–	–
RPMI 5 mM glucose + 10% dialyzed FBS, 0.00702 µM	114	–	–
RPMI 5 mM glucose + 10% dialyzed FBS, 0.0211 µM	136	–	–
RPMI 5 mM glucose + 10% dialyzed FBS, 0.0632 µM	125	–	–
RPMI 5 mM glucose + 10% dialyzed FBS, 0.19 µM	135	–	–
RPMI 5 mM glucose + 10% dialyzed FBS, 0.569 µM	137	–	–
RPMI 5 mM glucose + 10% dialyzed FBS, 1.71 µM	121	–	–
RPMI 5 mM glucose + 10% dialyzed FBS, 5.12 µM	132	–	–
RPMI 5 mM glucose + 10% dialyzed FBS, 15.4 µM	130	–	–
RPMI 5 mM glucose + 10% dialyzed FBS, 46.1 µM	126	–	–

AUC of viability dose-response curve
Conditions	[4]	[5]	[6]
HPLM + 10% dialyzed FBS	433	460	467
RPMI 5 mM glucose + 10% FBS	471	453	469
RPMI 5 mM glucose + 10% dialyzed FBS	469	465	468

CCOC(=O)c1c(/C(C#N)=C\N)c2ccc(Cl)c(Cl)c2n1C
cell viability [%]
Conditions	[1]	[2]	[3]
HPLM + 10% dialyzed FBS, 0.000781 µM	85.8	89.9	90.1
HPLM + 10% dialyzed FBS, 0.00234 µM	86.1	95.7	94.9
HPLM + 10% dialyzed FBS, 0.00702 µM	85.2	94.3	84.9
HPLM + 10% dialyzed FBS, 0.0211 µM	96.9	95	97.5
HPLM + 10% dialyzed FBS, 0.0632 µM	76.5	72.6	91.7
HPLM + 10% dialyzed FBS, 0.19 µM	94.1	101	92.2
HPLM + 10% dialyzed FBS, 0.569 µM	95.5	91.1	92.1
HPLM + 10% dialyzed FBS, 1.71 µM	81.7	87.2	91.6
HPLM + 10% dialyzed FBS, 5.12 µM	92.6	94	84.7
HPLM + 10% dialyzed FBS, 15.4 µM	83.4	95.8	83
HPLM + 10% dialyzed FBS, 46.1 µM	57.4	103	91.7
RPMI 5 mM glucose + 10% FBS, 0.000781 µM	86.7	81.9	88.1
RPMI 5 mM glucose + 10% FBS, 0.00234 µM	99.2	80.7	88.7
RPMI 5 mM glucose + 10% FBS, 0.00702 µM	89.9	82.5	85.5
RPMI 5 mM glucose + 10% FBS, 0.0211 µM	94.1	92	94.8
RPMI 5 mM glucose + 10% FBS, 0.0632 µM	84.6	80.4	83.2
RPMI 5 mM glucose + 10% FBS, 0.19 µM	89.7	77.3	86.3
RPMI 5 mM glucose + 10% FBS, 0.569 µM	97.8	79.7	81.1
RPMI 5 mM glucose + 10% FBS, 1.71 µM	94.4	88	91
RPMI 5 mM glucose + 10% FBS, 5.12 µM	89.6	80.8	82.8
RPMI 5 mM glucose + 10% FBS, 15.4 µM	84	78.6	81.2
RPMI 5 mM glucose + 10% FBS, 46.1 µM	62	95.3	87.4
RPMI 5 mM glucose + 10% dialyzed FBS, 0.000781 µM	80	90.7	84.5
RPMI 5 mM glucose + 10% dialyzed FBS, 0.00234 µM	97.7	90.1	86.2
RPMI 5 mM glucose + 10% dialyzed FBS, 0.00702 µM	81.8	87.7	89.9
RPMI 5 mM glucose + 10% dialyzed FBS, 0.0211 µM	87.8	91.4	92.8
RPMI 5 mM glucose + 10% dialyzed FBS, 0.0632 µM	71.6	79.2	90.6
RPMI 5 mM glucose + 10% dialyzed FBS, 0.19 µM	89.3	77	96.9
RPMI 5 mM glucose + 10% dialyzed FBS, 0.569 µM	102	86	87.9
RPMI 5 mM glucose + 10% dialyzed FBS, 1.71 µM	84.4	86.8	88.7
RPMI 5 mM glucose + 10% dialyzed FBS, 5.12 µM	94.8	87.2	89
RPMI 5 mM glucose + 10% dialyzed FBS, 15.4 µM	75.2	77.6	92.8
RPMI 5 mM glucose + 10% dialyzed FBS, 46.1 µM	76.9	101	90.8

AUC of viability dose-response curve
Conditions	[4]	[5]	[6]
HPLM + 10% dialyzed FBS	412	442	432
RPMI 5 mM glucose + 10% FBS	427	395	412
RPMI 5 mM glucose + 10% dialyzed FBS	408	407	429

O=C1CCc2cc(OCCCCc3nnnn3C3CCCCC3)ccc2N1
cell viability [%]
Conditions	[1]	[2]	[3]
HPLM + 10% dialyzed FBS, 0.000781 µM	79.2	92.2	90.5
HPLM + 10% dialyzed FBS, 0.00234 µM	83.1	86.5	92.6
HPLM + 10% dialyzed FBS, 0.00702 µM	101	92.8	87.5
HPLM + 10% dialyzed FBS, 0.0211 µM	92	99.6	95.7
HPLM + 10% dialyzed FBS, 0.0632 µM	92.9	97.6	96.4
HPLM + 10% dialyzed FBS, 0.19 µM	83.8	98.9	97.6
HPLM + 10% dialyzed FBS, 0.569 µM	88.8	107	94.2
HPLM + 10% dialyzed FBS, 1.71 µM	96.2	86	95.6
HPLM + 10% dialyzed FBS, 5.12 µM	97.8	108	96
HPLM + 10% dialyzed FBS, 15.4 µM	104	124	97.4
HPLM + 10% dialyzed FBS, 46.1 µM	99.3	111	96.9
RPMI 5 mM glucose + 10% FBS, 0.000781 µM	88.8	93	78.9
RPMI 5 mM glucose + 10% FBS, 0.00234 µM	88.8	94.7	93.8
RPMI 5 mM glucose + 10% FBS, 0.00702 µM	92	91.3	89.2
RPMI 5 mM glucose + 10% FBS, 0.0211 µM	91.5	82.8	81
RPMI 5 mM glucose + 10% FBS, 0.0632 µM	88.7	85.8	91.2
RPMI 5 mM glucose + 10% FBS, 0.19 µM	75.7	98.4	94.2
RPMI 5 mM glucose + 10% FBS, 0.569 µM	107	88.2	98.1
RPMI 5 mM glucose + 10% FBS, 1.71 µM	104	88.7	95.8
RPMI 5 mM glucose + 10% FBS, 5.12 µM	89.2	92.4	85.2
RPMI 5 mM glucose + 10% FBS, 15.4 µM	104	91.2	98.5
RPMI 5 mM glucose + 10% FBS, 46.1 µM	81.3	91.4	99.2
RPMI 5 mM glucose + 10% dialyzed FBS, 0.000781 µM	80.1	88.6	90.2
RPMI 5 mM glucose + 10% dialyzed FBS, 0.00234 µM	90	93	88.1
RPMI 5 mM glucose + 10% dialyzed FBS, 0.00702 µM	100	88.8	90
RPMI 5 mM glucose + 10% dialyzed FBS, 0.0211 µM	86.2	95.7	94.6
RPMI 5 mM glucose + 10% dialyzed FBS, 0.0632 µM	78.5	88	88.4
RPMI 5 mM glucose + 10% dialyzed FBS, 0.19 µM	87.6	93.1	91.8
RPMI 5 mM glucose + 10% dialyzed FBS, 0.569 µM	92.2	96.9	95.9
RPMI 5 mM glucose + 10% dialyzed FBS, 1.71 µM	92.7	96.5	90.2
RPMI 5 mM glucose + 10% dialyzed FBS, 5.12 µM	101	109	89.6
RPMI 5 mM glucose + 10% dialyzed FBS, 15.4 µM	90.6	93.9	88.1
RPMI 5 mM glucose + 10% dialyzed FBS, 46.1 µM	88.2	96	87.1

AUC of viability dose-response curve
Conditions	[4]	[5]	[6]
HPLM + 10% dialyzed FBS	439	411	452
RPMI 5 mM glucose + 10% FBS	438	433	436
RPMI 5 mM glucose + 10% dialyzed FBS	428	451	431
